According to patent US10131657B2, “Bromodomain inhibitors” (AbbVie Inc., priority 2013, dated 2018):

system: breast cancer cell line MX-1; experiment: MX-1 cell line proliferation assay, Method A; format: cell-based; conditions: Homo sapiens, MX1; MX-1 cells, 96-well, 72 hours, Cell Titer Glo; read-out: Cellular proliferation: EC50 Method A
Description: The impact of compounds of the Examples on cancer cell proliferation was determined using the breast cancer cell line MX-1 (ATCC) in a 3-day proliferation assay and the data are reported in Table 1.
MX-1 cells were maintained in RPMI 1640 medium (Sigma) supplemented with 10% FBS at 37° C. and an atmosphere of 5% CO2. For compound testing, MX-1 cells were plated in 96-well black bottom plates at a density of 5000 cells/well in 90 μL of culture media and incubated at 370 overnight to allow cell adhesion and spreading. Compound dilution series were prepared in DMSO via a 3-fold serial dilution from 3 mM to 0.1 μM. The DMSO dilution series were then diluted 1:100 in phosphate buffered saline, and 10 μL of the resulted solution were added to the appropriate wells of the MX-1 cell plate. The final compound concentrations in the wells were 3, 1, 0.3, 0.1, 0.03, 0.01, 0.003, 0.001, 0.0003 and 0.0001 μM.
Luminescence readings from the Cell Titer Glo assay were normalized to the DMSO treated cells and analyzed using the GraphPad Prism software with sigmoidal curve fitting to obtain ECs50s. The minimum significant ratio (MSR) was determined to evaluate assay reproducibility (Eastwood et al., (2006) J Biomol Screen, 11: 253-261).

Question: With CN1CCN(C(=O)c2cccc(Oc3ccc(S(C)(=O)=O)cc3-c3cn(C)c(=O)c4[nH]ccc34)c2)CC1 [Example 22, 6-methyl-4-[2-{3-[(4-methylpiperazin-1-yl)carbonyl]phenoxy}-5-(methylsulfonyl)phenyl]-1,6-dihydro-7H-pyrrolo[2,3-c]pyridin-7-one] as the compound, how does the EC50 read?
Answer: > 1 µM

Question: With Cn1cc(-c2cc(S(C)(=O)=O)ccc2Oc2cccc(NS(=O)(=O)c3cccc([N+](=O)[O-])c3)c2)c2cc[nH]c2c1=O [Example 51, N-{3-[2-(6-methyl-7-oxo-6,7-dihydro-1H-pyrrolo[2,3-c]pyridin-4-yl)-4-(methylsulfonyl)phenoxy]phenyl}-3-nitrobenzenesulfonamide] as the compound, how does the EC50 read?
Answer: > 1 µM

Question: With COc1ccc(S(=O)(=O)Nc2cccc(Oc3ccc(S(C)(=O)=O)cc3-c3cn(C)c(=O)c4[nH]ccc34)c2)cc1 [Example 39, 4-methoxy-N-{3-[2-(6-methyl-7-oxo-6,7-dihydro-1H-pyrrolo[2,3-c]pyridin-4-yl)-4-(methylsulfonyl)phenoxy]phenyl}benzenesulfonamide] as the compound, how does the EC50 read?
Answer: 0.0974 µM

Question: For CCS(=O)(=O)Nc1cc(-c2cn(C)c(=O)c3[nH]ccc23)c(Oc2ccc(F)cc2F)cc1C(=O)NC1CCOCC1 [Example 12, 5-(2,4-difluorophenoxy)-2-[(ethylsulfonyl)amino]-4-(6-methyl-7-oxo-6,7-dihydro-1H-pyrrolo[2,3-c]pyridin-4-yl)-N-(tetrahydro-2H-pyran-4-yl)benzamide], which EC50 is on record?
Answer: 0.0684 µM

Question: Which EC50 does the source give for Cn1cc(-c2cc(S(C)(=O)=O)ccc2Oc2cccc(C(=O)NCc3cc(F)cc(F)c3)c2)c2cc[nH]c2c1=O [Example 36, N-(3,5-difluorobenzyl)-3-[2-(6-methyl-7-oxo-6,7-dihydro-1H-pyrrolo[2,3-c]pyridin-4-yl)-4-(methylsulfonyl)phenoxy]benzamide] here?
Answer: 0.255 µM

Question: Cn1cc(-c2cc(S(C)(=O)=O)ccc2Oc2cccc(C(=O)NC3CCCCC3)c2)c2cc[nH]c2c1=O [Example 25, N-cyclohexyl-3-[2-(6-methyl-7-oxo-6,7-dihydro-1H-pyrrolo[2,3-c]pyridin-4-yl)-4-(methylsulfonyl)phenoxy]benzamide] was tested. Which EC50 did it give?
Answer: 0.134 µM

Question: How did the EC50 turn out when CCS(=O)(=O)c1ccc(Oc2ccc(Cl)cc2C#CCN2CCOCC2)c(-c2cn(C)c(=O)c3[nH]ccc23)c1 [Example 82, 4-[2-{4-chloro-2-[3-(morpholin-4-yl)prop-1-yn-1-yl]phenoxy}-5-(ethylsulfonyl)phenyl]-6-methyl-1,6-dihydro-7H-pyrrolo[2,3-c]pyridin-7-one] was run?
Answer: 0.221 µM

Question: For CC(=O)N1CCN(C(=O)c2cccc(Oc3ccc(S(C)(=O)=O)cc3-c3cn(C)c(=O)c4[nH]ccc34)c2)CC1 [Example 30, 4-[2-{3-[(4-acetylpiperazin-1-yl)carbonyl]phenoxy}-5-(methylsulfonyl)phenyl]-6-methyl-1,6-dihydro-7H-pyrrolo[2,3-c]pyridin-7-one], which EC50 is on record?
Answer: > 1 µM

Question: With CCS(=O)(=O)Nc1cc(-c2cn(C)c(=O)c3[nH]ccc23)c(Oc2ccc(F)cc2F)cc1CN(C)C [Example 2, N-[4-(2,4-difluorophenoxy)-2-[(dimethylamino)methyl]-5-(6-methy-7-oxo-6,7-dihydro-1H-pyrrolo[2,3-c]pyridin-4-yl)phenyl]ethanesulfonamide] as the compound, how does the EC50 read?
Answer: 0.11 µM

Question: How did the EC50 turn out when CCS(=O)(=O)Nc1cc(-c2cn(C)c(=O)c3[nH]ccc23)c(Oc2ccc(F)cc2F)cc1CN1CCOCC1 [Example 4, N-[4-(2,4-difluorophenoxy)-5-(6-methyl-7-oxo-6,7-dihydro-1H-pyrrolo[2,3-c]pyridin-4-yl)-2-(morpholin-4-ylmethyl)phenyl]ethanesulfonamide] was run?
Answer: 0.0163 µM

Question: For Cn1cc(-c2cc(S(C)(=O)=O)ccc2Oc2cccc(NS(=O)(=O)C3CC3)c2)c2cc[nH]c2c1=O [Example 49, N-{3-[2-(6-methyl-7-oxo-6,7-dihydro-1H-pyrrolo[2,3-c]pyridin-4-yl)-4-(methylsulfonyl)phenoxy]phenyl}cyclopropanesulfonamide], which EC50 is on record?
Answer: 0.0738 µM

Question: With Cn1cc(-c2cc(S(C)(=O)=O)ccc2NC2CCN(S(=O)(=O)c3ccccc3)CC2)c2cc[nH]c2c1=O [Example 84, 6-methyl-4-[5-(methylsulfonyl)-2-{[1-(phenylsulfonyl)piperidin-4-yl]amino}phenyl]-1,6-dihydro-7H-pyrrolo[2,3-c]pyridin-7-one] as the compound, how does the EC50 read?
Answer: 0.0878 µM

Question: Cn1cc(-c2cc(S(C)(=O)=O)ccc2Oc2cccc(C(=O)NC3CC3)c2)c2cc[nH]c2c1=O [Example 21, N-cyclopropyl-3-[2-(6-methyl-7-oxo-6,7-dihydro-1H-pyrrolo[2,3-c]pyridin-4-yl)-4-(methylsulfonyl)phenoxy]benzamide] was tested. Which EC50 did it give?
Answer: 0.487 µM

Question: Which EC50 does the source give for Cn1cc(-c2cc(S(C)(=O)=O)ccc2Oc2cccc(NCc3cccc(OC(F)(F)F)c3)c2)c2cc[nH]c2c1=O [Example 69, 6-methyl-4-[5-(methylsulfonyl)-2-(3-{[3-(trifluoromethoxy)benzyl]amino}phenoxy)phenyl]-1,6-dihydro-7H-pyrrolo[2,3-c]pyridin-7-one] here?
Answer: 0.0933 µM

Question: CC(=O)Nc1ccc(CN[C@H]2CC[C@H](Nc3ccc(S(C)(=O)=O)cc3-c3cn(C)c(=O)c4[nH]ccc34)CC2)cc1 [Example 108, N-(4-{[(trans-4-{[2-(6-methyl-7-oxo-6,7-dihydro-1H-pyrrolo[2,3-c]pyridin-4-yl)-4-(methylsulfonyl)phenyl]amino}cyclohexyl)amino]methyl}phenyl)acetamide] was tested. Which EC50 did it give?
Answer: 0.299 µM

Question: With Cn1cc(-c2cc(S(C)(=O)=O)ccc2Oc2cccc(C(=O)N3CCC(N4CCCC4)CC3)c2)c2cc[nH]c2c1=O [Example 24, 6-methyl-4-[5-(methylsulfonyl)-2-(3-{[4-(pyrrolidin-1-yl)piperidin-1-yl]carbonyl}phenoxy)phenyl]-1,6-dihydro-7H-pyrrolo[2,3-c]pyridin-7-one] as the compound, how does the EC50 read?
Answer: > 1 µM

Question: With CN(C)CCN1CCN(C(=O)c2cccc(Oc3ccc(S(C)(=O)=O)cc3-c3cn(C)c(=O)c4[nH]ccc34)c2)CC1 [Example 29, 4-{2-[3-({4-[2-(dimethylamino)ethyl]piperazin-1-yl}carbonyl)phenoxy]-5-(methylsulfonyl)phenyl}-6-methyl-1,6-dihydro-7H-pyrrolo[2,3-c]pyridin-7-one] as the compound, how does the EC50 read?
Answer: > 1 µM

Question: CCS(=O)(=O)Nc1cc(-c2cn(C)c(=O)c3[nH]ccc23)c(Oc2ccc(F)cc2F)cc1C(=O)N(C)C [Example 10, 5-(2,4-difluorophenoxy)-2-[(ethylsulfonyl)amino]-N,N-dimethyl-4-(6-methyl-7-oxo-6,7-dihydro-1H-pyrrolo[2,3-c]pyridin-4-yl)benzamide] was tested. Which EC50 did it give?
Answer: 0.0982 µM

Question: With Cn1cc(-c2cc(S(C)(=O)=O)ccc2Oc2cccc(NCc3cc(F)cc(F)c3)c2)c2cc[nH]c2c1=O [Example 73, 4-[2-{3-[(3,5-difluorobenzyl)amino]phenoxy}-5-(methylsulfonyl)phenyl]-6-methyl-1,6-dihydro-7H-pyrrolo[2,3-c]pyridin-7-one] as the compound, how does the EC50 read?
Answer: 0.0624 µM

Question: How did the EC50 turn out when CCS(=O)(=O)Nc1cc(-c2cn(C)c(=O)c3[nH]ccc23)c(Oc2ccc(F)cc2F)cc1CN1CCCCC1 [Example 3, N-[4-(2,4-difluorophenoxy)-5-(6-methyl-7-oxo-6,7-dihydro-1H-pyrrolo[2,3-c]pyridin-4-yl)-2-(piperidin-1-ylmethyl)phenyl]ethanesulfonamide] was run?
Answer: 0.0368 µM

Question: CCS(=O)(=O)Nc1cc(-c2cn(C)c(=O)c3[nH]ccc23)c(Oc2ccc(F)cc2F)cc1CN1CCN(C)CC1 [Example 5, N-{4-(2,4-difluorophenoxy)-5-(6-methyl-7-oxo-6,7-dihydro-1H-pyrrolo[2,3-c]pyridin-4-yl)-2-[(4-methylpiperazin-1-yl)methyl]phenyl}ethanesulfonamide] was tested. Which EC50 did it give?
Answer: 0.0401 µM

Question: Which EC50 does the source give for Cn1cc(-c2cc(S(C)(=O)=O)ccc2Oc2ccc(F)cc2F)c2cc(CN3CCN(C4CCOCC4)CC3)[nH]c2c1=O [Example 116, 4-[2-(2,4-difluorophenoxy)-5-(methylsulfonyl)phenyl]-6-methyl-2-{[4-(tetrahydro-2H-pyran-4-yl)piperazin-1-yl]methyl}-1,6-dihydro-7H-pyrrolo[2,3-c]pyridin-7-one] here?
Answer: 0.183 µM

Question: Cn1cc(-c2cc(S(C)(=O)=O)ccc2Oc2cccc(C(=O)NCCCN3CCCC3=O)c2)c2cc[nH]c2c1=O [Example 27, 3-[2-(6-methyl-7-oxo-6,7-dihydro-1H-pyrrolo[2,3-c]pyridin-4-yl)-4-(methylsulfonyl)phenoxy]-N-[3-(2-oxopyrrolidin-1-yl)propyl]benzamide] was tested. Which EC50 did it give?
Answer: 0.442 µM

Question: Cn1cc(-c2cc(S(C)(=O)=O)ccc2Oc2cccc(NCc3ccc4c(c3)OCCO4)c2)c2cc[nH]c2c1=O [Example 76, 4-[2-{3-[(2,3-dihydro-1,4-benzodioxin-6-ylmethyl)amino]phenoxy}-5-(methylsulfonyl)phenyl]-6-methyl-1,6-dihydro-7H-pyrrolo[2,3-c]pyridin-7-one] was tested. Which EC50 did it give?
Answer: 0.0499 µM

Question: With CCS(=O)(=O)Nc1cc(-c2cn(C)c(=O)c3[nH]ccc23)c(Oc2ccc(F)cc2F)c(C2CC2)c1 [Example 15, N-[3-cyclopropyl-4-(2,4-difluorophenoxy)-5-(6-methyl-7-oxo-6,7-dihydro-1H-pyrrolo[2,3-c]pyridin-4-yl)phenyl]ethanesulfonamide] as the compound, how does the EC50 read?
Answer: 0.105 µM

Question: With Cn1cc(-c2cc(S(C)(=O)=O)ccc2Oc2cccc(NCC3CC3)c2)c2cc[nH]c2c1=O [Example 80, 4-[2-{3-[(cyclopropylmethyl)amino]phenoxy}-5-(methylsulfonyl)phenyl]-6-methyl-1,6-dihydro-7H-pyrrolo[2,3-c]pyridin-7-one] as the compound, how does the EC50 read?
Answer: 0.128 µM
